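48-hour exposure; five concentrations; linearly interpolated endpoints. The concentration for 50% growth inhibition is given as GI50.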 Active and inactive are the calls of the source. Cut-off read from the data, not from the text of the source: active = GI50 up to about 1.1 µM and inactive = higher.
Tests used:
Assay in all cases: inhibition of tumour cell growth, NCI panel, 48 h
[1] = test system: HCT-116
[2] = test system: U-251
[3] = test system: SN12C
[4] = test system: NCI-H460
[5] = test system: NCI-H23
[6] = test system: M19-MEL
[7] = test system: UACC-62
[8] = test system: LOX IMVI
[9] = test system: A549
[10] = test system: SW-620
[11] = test system: MOLT-4
[12] = test system: HT-29
[13] = test system: RPMI-8226
[14] = test system: LXFL 529
[15] = test system: SK-MEL-2
[16] = test system: A498
[17] = test system: Hs-578T
[18] = test system: MDA-MB-231
[19] = test system: MCF7
[20] = test system: MDA-N

Row | Compound | GI50 [1] | GI50 [2] | GI50 [3] | GI50 [4] | GI50 [5] | GI50 [6] | GI50 [7] | GI50 [8] | GI50 [9] | GI50 [10] | GI50 [11] | GI50 [12] | GI50 [13] | GI50 [14] | GI50 [15] | GI50 [16] | GI50 [17] | GI50 [18] | GI50 [19] | GI50 [20]
1 | CCOC(=O)CCC(=O)C1c2cccc(O)c2C(=O)c2c(O)cccc21 | 1.31 µM (inactive) | 0.301 µM (active) | 1.33 µM (inactive) | 0.26 µM (active) | 1.37 µM (inactive) | 0.566 µM (active) | 0.395 µM (active) | 0.604 µM (active) | 0.61 µM (active) | 0.6 µM (active) | 2.31 µM (inactive) | 2.74 µM (inactive) | – | – | – | – | – | – | – | –
2 | NC1=NS(=O)(=O)N=C(N)C1=Cc1ccc([N+](=O)[O-])o1 | 15.4 µM (inactive) | 50.8 µM (inactive) | 16.5 µM (inactive) | 17.9 µM (inactive) | 17.3 µM (inactive) | 16.5 µM (inactive) | 16.4 µM (inactive) | 17.2 µM (inactive) | 52 µM (inactive) | 18.3 µM (inactive) | 12.6 µM (inactive) | 18.2 µM (inactive) | 17.1 µM (inactive) | 17.1 µM (inactive) | 16.1 µM (inactive) | – | – | – | – | –
3 | COc1ccc(-c2cc(-c3cc(Cl)cc(Br)c3O)nc(O)n2)cc1 | 12.2 µM (inactive) | 17 µM (inactive) | 15.5 µM (inactive) | 17.9 µM (inactive) | 14 µM (inactive) | 19.7 µM (inactive) | 14.9 µM (inactive) | 17.3 µM (inactive) | 16.7 µM (inactive) | 20.7 µM (inactive) | 13.2 µM (inactive) | 17.7 µM (inactive) | 18.8 µM (inactive) | 14.6 µM (inactive) | – | 16.6 µM (inactive) | – | – | – | –
4 | CC1(C)Oc2ccccc2N2O[C@@H]3C(=O)N(c4ccccc4)C(=O)[C@@H]3C21c1ccccc1 (some centres undefined) | 20.8 µM (inactive) | 25 µM (inactive) | – | 28.9 µM (inactive) | 97.7 µM (inactive) | 29 µM (inactive) | 33.1 µM (inactive) | – | 20.1 µM (inactive) | 34.4 µM (inactive) | 27.1 µM (inactive) | 29 µM (inactive) | 37.8 µM (inactive) | 56.1 µM (inactive) | 23.1 µM (inactive) | 20.8 µM (inactive) | – | – | – | –
5 | CCN(CC)C(=O)CCn1ccc(=O)[nH]c1=O | > 100 µM (inactive) | > 100 µM (inactive) | > 100 µM (inactive) | > 100 µM (inactive) | > 100 µM (inactive) | > 100 µM (inactive) | > 100 µM (inactive) | > 100 µM (inactive) | > 100 µM (inactive) | > 100 µM (inactive) | > 100 µM (inactive) | > 100 µM (inactive) | > 100 µM (inactive) | > 100 µM (inactive) | > 100 µM (inactive) | – | – | – | – | –
6 | NCCSc1cc(O)c2c(c1N)C(=O)c1ccccc1C2=O | 34 µM (inactive) | 58.7 µM (inactive) | 47.1 µM (inactive) | 36 µM (inactive) | > 100 µM (inactive) | 24.3 µM (inactive) | 36.7 µM (inactive) | – | > 100 µM (inactive) | 33.1 µM (inactive) | 20.9 µM (inactive) | 34.1 µM (inactive) | – | 38.2 µM (inactive) | 65.6 µM (inactive) | 91.2 µM (inactive) | – | – | – | –
7 | COC(=O)C1=Cc2cc(OC)c(OC)c(OC)c2[C@H](c2cc(OC)c(OC)c(OC)c2)C1C(=O)OC (some centres undefined) | > 100 µM (inactive) | > 100 µM (inactive) | > 100 µM (inactive) | > 100 µM (inactive) | > 100 µM (inactive) | > 100 µM (inactive) | > 100 µM (inactive) | > 100 µM (inactive) | > 100 µM (inactive) | > 100 µM (inactive) | > 100 µM (inactive) | > 100 µM (inactive) | > 100 µM (inactive) | > 100 µM (inactive) | – | > 100 µM (inactive) | – | – | – | –
8 | COc1ccc(/C=C/C(=O)c2sc(-c3cccnc3)nc2C)cc1 | – | 58.3 µM (inactive) | 64.6 µM (inactive) | 53.5 µM (inactive) | 75.5 µM (inactive) | 67.9 µM (inactive) | 46.3 µM (inactive) | 25.1 µM (inactive) | 39.2 µM (inactive) | 32.8 µM (inactive) | 16.7 µM (inactive) | 36.9 µM (inactive) | 2.9 µM (inactive) | – | 38.4 µM (inactive) | > 100 µM (inactive) | – | – | – | –
9 | N#CCC12CC=CCC1=C(O)C(=O)c1ccc(O)cc12 (centres undefined) | > 100 µM (inactive) | > 100 µM (inactive) | > 100 µM (inactive) | > 100 µM (inactive) | > 100 µM (inactive) | – | > 100 µM (inactive) | > 100 µM (inactive) | > 100 µM (inactive) | > 100 µM (inactive) | > 100 µM (inactive) | > 100 µM (inactive) | > 100 µM (inactive) | – | > 100 µM (inactive) | > 100 µM (inactive) | 58.1 µM (inactive) | > 100 µM (inactive) | > 100 µM (inactive) | > 100 µM (inactive)
10 | CSc1sc(=S)sc1C(=O)N(C)c1ccccc1 | > 100 µM (inactive) | > 100 µM (inactive) | > 100 µM (inactive) | > 100 µM (inactive) | > 100 µM (inactive) | > 100 µM (inactive) | 78.7 µM (inactive) | > 100 µM (inactive) | > 100 µM (inactive) | > 100 µM (inactive) | 84.5 µM (inactive) | > 100 µM (inactive) | 52.7 µM (inactive) | > 100 µM (inactive) | > 100 µM (inactive) | – | – | – | – | –
11 | CCN(CC)C(=S)N/N=C1\C(=O)Nc2ccccc21 | 0.386 µM (active) | 1.41 µM (inactive) | 1.46 µM (inactive) | 0.406 µM (active) | 2.9 µM (inactive) | – | 1.31 µM (inactive) | 0.495 µM (active) | 0.638 µM (active) | 0.493 µM (active) | 0.653 µM (active) | 1.18 µM (inactive) | 0.355 µM (active) | – | 2.65 µM (inactive) | 1.25 µM (inactive) | 0.771 µM (active) | 1.14 µM (inactive) | 0.397 µM (active) | 2.01 µM (inactive)
12 | CCOC(=O)N(C)C1(c2ccccc2)CCN(CCCC(=O)c2ccc(F)cc2)CC1 | 32.2 µM (inactive) | 61.4 µM (inactive) | 83.4 µM (inactive) | 35.5 µM (inactive) | 68.7 µM (inactive) | – | 42.1 µM (inactive) | 20.9 µM (inactive) | 92.3 µM (inactive) | 0.349 µM (active) | 31.8 µM (inactive) | 19.7 µM (inactive) | 27.4 µM (inactive) | – | 21.5 µM (inactive) | 36.5 µM (inactive) | 49 µM (inactive) | 39.4 µM (inactive) | 33.4 µM (inactive) | 21.7 µM (inactive)
13 | Cc1cc(N)c2cc(NC(=O)Nc3ccc4nc(C)cc(N)c4c3)ccc2n1 | > 100 µM (inactive) | 70.6 µM (inactive) | > 100 µM (inactive) | 32.4 µM (inactive) | > 100 µM (inactive) | – | > 100 µM (inactive) | > 100 µM (inactive) | > 100 µM (inactive) | > 100 µM (inactive) | > 100 µM (inactive) | > 100 µM (inactive) | > 100 µM (inactive) | – | > 100 µM (inactive) | > 100 µM (inactive) | > 100 µM (inactive) | 47.8 µM (inactive) | > 100 µM (inactive) | > 100 µM (inactive)
14 | C[C@]12CC[C@H](O)CC1=CC[C@@H]1[C@@H]2CC[C@]2(C)C(=O)[C@@H](N3CCOCC3)C[C@@H]12 | > 100 µM (inactive) | 89.3 µM (inactive) | > 100 µM (inactive) | > 100 µM (inactive) | 57.8 µM (inactive) | – | 76.4 µM (inactive) | > 100 µM (inactive) | > 100 µM (inactive) | > 100 µM (inactive) | 55.3 µM (inactive) | > 100 µM (inactive) | 48.4 µM (inactive) | – | > 100 µM (inactive) | > 100 µM (inactive) | 90.4 µM (inactive) | > 100 µM (inactive) | > 100 µM (inactive) | > 100 µM (inactive)
15 | C[N+]12CCCCC1C(CN1C(=O)c3ccccc3C1=O)CCC2 (centres undefined) | > 100 µM (inactive) | > 100 µM (inactive) | > 100 µM (inactive) | > 100 µM (inactive) | > 100 µM (inactive) | – | > 100 µM (inactive) | > 100 µM (inactive) | > 100 µM (inactive) | > 100 µM (inactive) | > 100 µM (inactive) | > 100 µM (inactive) | > 100 µM (inactive) | – | > 100 µM (inactive) | > 100 µM (inactive) | > 100 µM (inactive) | > 100 µM (inactive) | > 100 µM (inactive) | > 100 µM (inactive)
16 | CCOc1cc2c(cc1O)C=C[C@@H]1[C@@H]2CC[C@]2(C)[C@@H](O)CC[C@@H]12 | 1.11 µM (active) | 3.43 µM (inactive) | 4.52 µM (inactive) | 2.05 µM (inactive) | 3.85 µM (inactive) | – | 4.07 µM (inactive) | 3.87 µM (inactive) | 4.27 µM (inactive) | 1.87 µM (inactive) | 2.91 µM (inactive) | 10 µM (inactive) | 2.52 µM (inactive) | – | 4.38 µM (inactive) | 7.11 µM (inactive) | 4.19 µM (inactive) | 4.11 µM (inactive) | 3.61 µM (inactive) | 0.33 µM (active)
17 | N#[N+][c-]1c(-c2ccccc2)n[nH]c1=O | > 100 µM (inactive) | > 100 µM (inactive) | > 100 µM (inactive) | > 100 µM (inactive) | > 100 µM (inactive) | > 100 µM (inactive) | – | > 100 µM (inactive) | > 100 µM (inactive) | > 100 µM (inactive) | > 100 µM (inactive) | > 100 µM (inactive) | > 100 µM (inactive) | > 100 µM (inactive) | > 100 µM (inactive) | – | – | – | – | –

From ChEMBL document CHEMBL1201862, “PubChem BioAssay data set” (2004)
